# Experiments:
# Assay in all cases: DRaCALA, one-site saturation fit
# Assay type in all cases: binding
# [1] = target: T1, wild-type RNAP with DksA (Sites 1 and 2) (Escherichia coli, UniProt P0A800+P0A8T7+P0ABS1, P0ABS1:R129A)
# T1 construct: gene rpoZ; recombinant core RNAP saturated with omega plus saturating purified DksA; with DNA-directed RNA polymerase subunit alpha; DNA-directed RNA polymerase subunit beta
# [2] = target: T2, RNAPΔω with DksA (Site 2 only) (Escherichia coli, UniProt P0A8T7+P0ABS1); details: read-out: Kd,app
# T2 construct: gene rpoC; with DNA-directed RNA polymerase subunit alpha; DNA-directed RNA polymerase subunit beta
# [3] = target: T3, RNAPΔω (no DksA; lacking Sites 1 and 2) (Escherichia coli, UniProt P0A8T7); details: read-out: Kd,app
# T3 construct: gene rpoC; RNAP lacking omega, purified from a ΔrpoZ strain, no DksA added; with DNA-directed RNA polymerase subunit alpha; DNA-directed RNA polymerase subunit beta
# [4] = target: T4, wild-type RNAP-GreB complex (Escherichia coli, UniProt P0A800+P0A8T7); details: read-out: Kd,app
# T4 construct: gene rpoZ; recombinant core RNAP saturated with omega plus purified GreB; ppGpp at Site 1; with DNA-directed RNA polymerase subunit alpha; DNA-directed RNA polymerase subunit beta; Transcription elongation factor GreB
# [5] = target: T5, wild-type RNAP (without DksA; Site 1 only) (Escherichia coli, UniProt P0A800+P0A8T7); details: read-out: Kd,app
# T5 construct: gene rpoZ; recombinant core RNAP, alpha, beta, beta' from one plasmid and omega from a second plasmid, omega saturating; with DNA-directed RNA polymerase subunit alpha; DNA-directed RNA polymerase subunit beta
# [6] = target: T6, wild-type RNAP (without DksA; Site 1 only) (Escherichia coli, UniProt P0A800+P0A8T7, P0A800:DEL2-5)
# T6 construct: gene rpoZ; recombinant core RNAP, alpha, beta, beta' from one plasmid and omega from a second plasmid, omega saturating; with DNA-directed RNA polymerase subunit alpha; DNA-directed RNA polymerase subunit beta
# [7] = target: T7, wild-type RNAP with DksA (Sites 1 and 2) (Escherichia coli, UniProt P0A800+P0A8T7+P0ABS1, P0ABS1:K98A)
# T7 construct: gene rpoZ; recombinant core RNAP saturated with omega plus saturating purified DksA; with DNA-directed RNA polymerase subunit alpha; DNA-directed RNA polymerase subunit beta
# [8] = target: T8, wild-type RNAP with DksA (Sites 1 and 2) (Escherichia coli, UniProt P0A800+P0A8T7+P0ABS1); details: read-out: Kd,app
# T8 construct: gene rpoZ; recombinant core RNAP saturated with omega plus saturating purified DksA; with DNA-directed RNA polymerase subunit alpha; DNA-directed RNA polymerase subunit beta
# [9] = target: T9, wild-type RNAP-TraR complex (Escherichia coli, UniProt P0A800+P0A8T7); details: Site 1; TraR present; labelled compound [32P]-ppGpp; unreliable (printed 'at least'; curve did not plateau); non-equilibrium assay
# T9 construct: gene rpoZ; recombinant core RNAP saturated with omega plus purified TraR (encoded by F element); ppGpp at Site 1; with DNA-directed RNA polymerase subunit alpha; DNA-directed RNA polymerase subunit beta; Protein TraR
compound,measurement,setting,value
"Nc1nc2c(ncn2[C@@H]2O[C@H](COP(=O)(O)OP(=O)(O)O)[C@@H](OP(=O)(O)OP(=O)(O)O)[C@H]2O)c(=O)[nH]1 [ppGpp, guanosine 5'-diphosphate 3'-diphosphate]",Kd,[1],~1.8 µM
same,Kd,[2],7.9 ± 1.3 µM
same,Kd,[3],> 100 µM
same,Kd,[4],~6.4 µM
same,Kd,[5],6.1 ± 1.3 µM
same,Kd,[6],> 100 µM
same,Kd,[7],~1.3 µM
same,Kd,[8],3.3 ± 1.2 µM
same,"Kd,app",[9],> 4.2 ± 0.6 µM

# From paper PMC7676912, “Guanosine Tetraphosphate Has a Similar Affinity for Each of Its Two Binding Sites on Escherichia coli RNA Polymerase” (Frontiers in Microbiology, 2020)
